Test results from ChEMBL document CHEMBL1139445, “Synthesis of potent and selective 2-azepanone inhibitors of human tryptase” (Bioorg Med Chem Lett, 2004).
“And” between values parts separate entries of the source, which are not always exact repeats. Equal values may be shown once.

Experiments:
Tryptase = Tryptase (Homo sapiens, UniProt Q9BZJ3+Q15661+Q9NRR2); test: Inhibition of human tryptase.; assay type: protein assay
[1] = biological target: Urokinase-type plasminogen activator (Homo sapiens, UniProt P00749); test: Compound was tested for inhibition of human urokinase-type plasminogen activator
Serine protease 1 = Serine protease 1 (Homo sapiens, UniProt P07477); test: Compound was tested for inhibition of human trypsin; parameters: reference not given here
Sequence of Serine protease 1 (P07477 whole entry): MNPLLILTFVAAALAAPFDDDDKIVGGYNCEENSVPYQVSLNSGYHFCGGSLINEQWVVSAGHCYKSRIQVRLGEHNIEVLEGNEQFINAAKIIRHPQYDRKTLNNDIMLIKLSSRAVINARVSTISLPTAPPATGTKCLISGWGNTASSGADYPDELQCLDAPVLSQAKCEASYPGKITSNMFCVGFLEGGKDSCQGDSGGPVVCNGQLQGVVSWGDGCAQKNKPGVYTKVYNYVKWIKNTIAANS

Row | SMILES | IC50 (Tryptase) | selectivity ratio [1] | selectivity ratio (Serine protease 1)
1 | Cc1ccc(CN)cc1NC(=O)CN1CCCCC(NC(=O)c2ccc(-c3ccccc3)cc2)C1=O (centres undefined) | 0.074 µM | > 450 | > 450
2 | Cc1ccc(-c2ccc(C(=O)NC3CCCCN(CC(=O)Nc4cccc(CN)c4)C3=O)cc2)cc1 (centres undefined) | 1.3 µM | – | –
3 | NCCCCCNC(=O)CN1CCCCC(NC(=O)c2ccc(-c3ccccc3)cc2)C1=O (centres undefined) | 12 µM | – | –
4 | NC1CCCc2ccc(NC(=O)CN3CCCCC(NC(=O)c4ccc(-c5ccccc5)cc4)C3=O)cc21 (centres undefined) | > 33 µM | – | –
5 | NCc1ccccc1NC(=O)CN1CCCCC(NC(=O)c2ccc(-c3ccccc3)cc2)C1=O (centres undefined) | > 33 µM | – | –
6 | NCc1cccc(NC(=O)CN2CCCCC(NC(=O)Cc3ccc(-c4ccccc4)cc3)C2=O)c1 (centres undefined) | 5.2 µM | – | –
7 | NCC1CCC(NC(=O)CN2CCCCC(NC(=O)c3ccc(-c4ccccc4)cc3)C2=O)CC1 (centres undefined) | 12 µM | – | –
8 | CCN(CC)Cc1cccc(NC(=O)CN2CCCCC(NC(=O)c3ccc(-c4ccccc4)cc3)C2=O)c1 (centres undefined) | > 33 µM | – | –
9 | NCc1cccc(NC(=O)CN2CCCCC(NC(=O)COc3ccc4ccccc4c3)C2=O)c1 (centres undefined) | 4.6 µM | – | –
10 | O=C(CN1CCCCC(NC(=O)c2ccc(-c3ccccc3)cc2)C1=O)Nc1ccc2c(c1)CNCC2 (centres undefined) | > 33 µM | – | –
11 | NCCCCCCNC(=O)CN1CCCCC(NC(=O)c2ccc(-c3ccccc3)cc2)C1=O (centres undefined) | > 33 µM | – | –
12 | Nc1ccc(CNC(=O)CN2CCCCC(NC(=O)c3ccc(-c4ccccc4)cc3)C2=O)cc1 (centres undefined) | > 33 µM | – | –
13 | NCc1ccc(NC(=O)CN2CCCCC(NC(=O)c3ccc(-c4ccccc4)cc3)C2=O)cc1 (centres undefined) | 3.6 µM | – | –
14 | NCCCCNC(=O)CN1CCCCC(NC(=O)c2ccc(-c3ccccc3)cc2)C1=O (centres undefined) | > 33 µM | – | –
15 | CNCc1cccc(NC(=O)CN2CCCCC(NC(=O)c3ccc(-c4ccccc4)cc3)C2=O)c1 (centres undefined) | > 33 µM | – | –
16 | NCc1cccc(NC(=O)CN2CCCCC(NC(=O)c3cnc4ccccc4c3)C2=O)c1 (centres undefined) | 15 µM | – | –

Row | SMILES | IC50 (Tryptase) | selectivity ratio [1] | selectivity ratio (Serine protease 1)
17 | O=C(CN1CCCCC(NC(=O)c2ccc(-c3ccccc3)cc2)C1=O)NCC1CCNCC1 (centres undefined) | > 33 µM | – | –
18 | CCc1ccc(C(=O)NC2CCCCN(CC(=O)Nc3cccc(CN)c3)C2=O)cc1 (centres undefined) | 4.6 µM | – | –
19 | NCc1cccc(CNC(=O)CN2CCCCC(NC(=O)c3ccc(-c4ccccc4)cc3)C2=O)c1 (centres undefined) | 13 µM | – | –
20 | NCc1cccc(NC(=O)CN2CCCCC(NC(=O)c3ccc(Cc4ccccc4)cc3)C2=O)c1 (centres undefined) | 0.98 µM | – | –
21 | CCc1ccc(-c2ccc(C(=O)NC3CCCCN(CC(=O)Nc4cccc(CN)c4)C3=O)cc2)cc1 (centres undefined) | 2.9 µM | – | –
22 | NCc1cccc(NC(=O)CN2CCCCC(NC(=O)CCCCc3ccccc3)C2=O)c1 (centres undefined) | 2.9 µM | – | –
23 | NCc1cccc(NC(=O)CN2CCCCC(NC(=O)c3ccc(-c4ccccc4)cc3)C2=O)c1 (centres undefined) | 0.25 µM and > 0.25 µM | > 130 | > 130
24 | Nc1cccc(CNC(=O)CN2CCCCC(NC(=O)c3ccc(-c4ccccc4)cc3)C2=O)c1 (centres undefined) | > 33 µM | – | –
25 | NCc1cccc(NC(=O)CN2CCCCC(NC(=O)CC(c3ccccc3)c3ccccc3)C2=O)c1 (centres undefined) | 0.2 µM | > 170 | > 170
26 | NCc1cccc(NC(=O)CN2CCCCC(NC(=O)c3ccc(-c4ccc(Cl)c(Cl)c4)cc3)C2=O)c1 (centres undefined) | 2.1 µM | – | –
27 | NCc1ccc(Cl)c(NC(=O)CN2CCCCC(NC(=O)c3ccc(-c4ccccc4)cc3)C2=O)c1 (centres undefined) | 0.038 µM | > 870 | 360
28 | NC(=O)c1cccc(NC(=O)CN2CCCCC(NC(=O)c3ccc(-c4ccccc4)cc3)C2=O)c1 (centres undefined) | > 33 µM | – | –
29 | NCCc1ccc(NC(=O)CN2CCCCC(NC(=O)c3ccc(-c4ccccc4)cc3)C2=O)cc1 (centres undefined) | 11 µM | – | –
30 | COc1ccc(CN)cc1NC(=O)CN1CCCCC(NC(=O)c2ccc(-c3ccccc3)cc2)C1=O (centres undefined) | 0.89 µM | – | –
31 | NCc1cccc(NC(=O)CN2CCCCC(NC(=O)c3ccc(C4CCCCC4)cc3)C2=O)c1 (centres undefined) | 0.98 µM | – | –
